Molecular target: T1, EP4 receptor (Homo sapiens, UniProt P35408)
T1 construct: host or cells: HEK 293(ebna) according to the general protocol; cells used by the contract laboratory not given
Experiment: EP4 receptor binding assay (inhibition of [3H]PGE2 binding, MSD Pharma Service)
Settings: 1 nM [3H] PGE2, Human recombinant Chem-1 cells; for inhibition at 0.002 µM: Tested Concentration 2 nM; for inhibition at 0.01 µM: Tested Concentration 10 nM
Protocol: Transfected HEK 293(ebna) cells are maintained in culture, harvested and membranes are prepared by differential centrifugation, following lysis of the cells in the presence of protease inhibitors, for use in receptor binding assays. Prostanoid receptor binding assays (for DP1, DP2 (CRTH2), EP1, EP2, EP3-III, EP4, FP, IP, and TP) are performed in 10 mM MES/KOH (pH 6.0) (EPs, FP and TP) or 10 mM HEPES/KOH (pH 7.4) (DPs and IP), containing 1 mM EDTA, 2.5-30 mM divalent cation and the appropriate radioligand. Synthetic compounds are added in dimethylsulfoxide which is kept constant at 1% (v/v) in all incubations. The reaction is initiated by addition of membrane protein. Non-specific binding is determined in the presence of 10 μM of the corresponding non-radioactive prostanoid. Incubations are conducted for 60-90 min at room temperature or 30° C. and terminated by rapid filtration. Specific binding is calculated by subtracting non specific binding from total binding. The residual specific binding at each ligand concentration is calculated and expressed as a function of ligand concentration in order to construct sigmoidal concentration-response curves. The binding affinity of the compounds is determined by calculating the equilibrium inhibition constant (Ki) from the equation Ki=InPt/1[radioligand]/Kd where Kd is the equilibrium dissociation constant for the radioligand:receptor interaction and InPt is the inflection point of the dose-response curves.
EP4 receptor binding assays were performed at MSD Pharma Service in Taiwan under the following assay conditions: […]

T1 sequence (P35408 whole entry): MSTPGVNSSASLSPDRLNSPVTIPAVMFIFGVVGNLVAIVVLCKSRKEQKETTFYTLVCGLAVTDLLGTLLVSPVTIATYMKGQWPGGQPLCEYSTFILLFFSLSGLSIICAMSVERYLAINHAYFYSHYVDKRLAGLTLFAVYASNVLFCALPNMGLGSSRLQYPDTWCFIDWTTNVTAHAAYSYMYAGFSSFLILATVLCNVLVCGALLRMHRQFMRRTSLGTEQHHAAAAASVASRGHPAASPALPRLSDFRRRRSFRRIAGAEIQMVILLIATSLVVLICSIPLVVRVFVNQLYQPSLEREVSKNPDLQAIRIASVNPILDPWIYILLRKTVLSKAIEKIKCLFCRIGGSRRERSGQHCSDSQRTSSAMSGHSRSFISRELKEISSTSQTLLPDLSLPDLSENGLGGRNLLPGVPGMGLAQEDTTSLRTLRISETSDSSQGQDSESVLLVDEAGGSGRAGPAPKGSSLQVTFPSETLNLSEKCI

Row | inhibition at 0.002 µM | inhibition at 0.01 µM | SMILES
1 | 88% | – | O=C(O)c1ccc(C2(NC(=O)c3csc4ccn(Cc5ccc(C(F)(F)F)cc5)c34)CC2)cc1
2 | 93% | – | Cc1sc2ccn(Cc3ccc(C(F)(F)F)cc3)c2c1C(=O)NC1(c2ccc(C(=O)O)cc2)CC1
3 | – | 85% | Cc1sc2ccn(Cc3ccc(C(F)(F)F)cc3)c2c1C(=O)NC(C)c1ccc(C(=O)O)cc1 (centres unmarked)
4 | – | 87% | CC(NC(=O)c1csc2ccn(Cc3ccc(C(F)(F)F)cc3)c12)c1ccc(C(=O)O)cc1 (centres unmarked)
5 | – | 83% | O=C(O)c1ccc(C2(NC(=O)c3cccc4c3N(Cc3ccc(C(F)(F)F)cc3)C(=O)C4)CC2)cc1
